The source of these data is patent publication US20120094995A1, “2-AZA-BICYCLO[2.2.1]HEPTANE COMPOUNDS AND USES THEREOF” (ASTRAZENECA AB, priority 2009, published 2012).

The target of one assay is T1, human GlyT1b (Homo sapiens, UniProt P48067).
T1 construct: expressed in transfected cells
T1 sequence (P48067 1-652 isoform P48067-3): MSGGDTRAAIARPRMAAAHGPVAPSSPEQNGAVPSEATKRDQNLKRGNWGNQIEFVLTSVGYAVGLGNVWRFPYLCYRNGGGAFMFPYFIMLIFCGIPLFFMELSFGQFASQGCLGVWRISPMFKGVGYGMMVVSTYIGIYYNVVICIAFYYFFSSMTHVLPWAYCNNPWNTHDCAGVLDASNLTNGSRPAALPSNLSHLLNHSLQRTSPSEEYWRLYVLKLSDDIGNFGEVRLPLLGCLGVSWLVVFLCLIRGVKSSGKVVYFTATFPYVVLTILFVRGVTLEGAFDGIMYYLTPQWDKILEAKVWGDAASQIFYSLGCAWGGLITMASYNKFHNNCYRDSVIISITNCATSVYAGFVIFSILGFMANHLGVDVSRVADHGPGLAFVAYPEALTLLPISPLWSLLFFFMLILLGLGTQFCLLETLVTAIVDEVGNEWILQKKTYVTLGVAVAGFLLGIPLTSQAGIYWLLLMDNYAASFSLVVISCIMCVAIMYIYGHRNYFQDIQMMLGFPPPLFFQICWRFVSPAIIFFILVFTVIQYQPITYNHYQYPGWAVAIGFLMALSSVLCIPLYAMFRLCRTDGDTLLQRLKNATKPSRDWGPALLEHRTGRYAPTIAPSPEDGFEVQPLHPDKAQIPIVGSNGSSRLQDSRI
The assay is described as follows: [3H] Glycine Uptake Assay (SPA) in recombinant hGlyT1b-CHO cells. To be noted: Table 1. It counts as cell-based. On the procedure:
A. [3H] Glycine Uptake Assay
Preparation of recombinant human GlyT1b-CHO cells (hGlyT1b-CHO). The human GlyT1b CDS (GC002087, NM_006934) was cloned downstream of a CMV promoter in a bicistronic expression vector containing a hygromycin B resistance gene. CHO-K1 cells (ATCC) were transfected with the recombinant vector containing GlyT1b using Lipofectamine 2000 (Invitrogen) and cultured in Ham's/F12 media supplemented with 10% fetal bovine serum, 2 mM L-glutamine at 37° C., 5% CO2, 90% humidity. Twenty-four hours after transfection, cells were diluted and switched to media containing 0.5 mg/ml hygromycin B. Antibiotic resistant cells were obtained after 21 days of culture in the presence of hygromycin B. Clonal stable cell lines were isolated by FACS single cell deposition into 96-well plates.
Cells used were Recombinant hGlyT1b/CHO. These cells were cultured in cell culture medium (Ham's/F12 (Modified) (Mediatech, 10-080-CM), containing 10% FBS, 2 mM L-glutamine (Invitrogen 25030-149) and 0.5 mg/mL hygromycin B (Invitrogen, 10687-010)) in 175 cm^2 flasks until near confluence before use in the assay.
Cell medium in a cell culture flask containing near confluent cells was removed and 5 mL of cell stripper was added to submerge all cells on the surface of the culture flask. Cell stripper was removed immediately and the flask incubated in a 37° C. incubator for ˜5 min. Cells were shaken loose and suspended in 5 mL of PBS. After splitting cells to initiate a new flask(s), the cells remaining were collected by centrifugation, counted, and resuspended in assay buffer to a density of ˜2 million/mL. The cell suspension was kept at room temperature before use. The assays buffer was 10 mM HEPES, pH 7.4, containing 150 mM NaCl, 5 mM KCl, 1.5 mM CaCl2, 1.5 mM MgCl2, 0.45 mg/mL L-alanine (added fresh), and 1.8 mg/mL D-glucose (added fresh).
WGA PTV beads were suspended in assay buffer (2 mg/ml) containing 60 nM [^3H]Glycine (PerkinElmer (NET-004, [2-^3H]Glycine, 53.3 Ci/mmol, 1 mCi/mL)) and 20 μM unlabeled glycine and the suspension was kept at room temperature before assay.
To the wells of an OptiPlate, 2 μl DMSO containing a test compound was spotted. This was followed by addition of 98 μl of cell suspension (˜1 million/ml final). After incubating cells with compound for ˜15 min, 100 μl of the SPA (200 μg/well final) and isotope mixture (30 nM isotope with 10 μM cold glycine, final) was added to initiate the glycine uptake. At 2 h, the plate was read on a TopCount to quantify SPA counts.
Consider `CSc1ncccc1C(=O)NC(c1ccccc1)C12CCC(CC1)N2C` (single isomer, unassigned) [Example 2, (R*)—N-((7-methyl-7-azabicyclo[2.2.1]heptan-1-y)(phenyl)methyl)-2-(methylthio)nicotinamide], for which the IC50 (in general, the concentration at which inhibition is half-maximal) amounted to 168 nM.

Consider `CN1C2CCC1(C(NC(=O)c1cccc(Cl)c1Cl)c1ccccc1)CC2` (stereo not drawn) [Example 12, 2,3-dichloro-N-((7-methyl-7-azabicyclo[2.2.1]heptan-1-yl)(phenyl)methyl)benzamide], for which the IC50 was found to be 33.6 nM.

On to `CN1C2CCC1(C(NC(=O)c1cccc(C(F)(F)F)c1Cl)c1ccccc1)CC2` (stereo not drawn) [Example 17, 2-chloro-N-((7-methyl-7-azabicyclo[2.2.1]heptan-1-yl)(phenyl)methyl)-3-(trifluoromethyl)benzamide], for which the IC50 worked out at 17.9 nM.

Turning to `CSc1ncccc1C(=O)NC(c1ccccc1)C12CCC(CC1)N2C` (stereo not drawn) [Example 10, N-((7-methyl-7-azabicyclo[2.2.1]heptan-1-yl)(phenyl)methyl)-2-(methylthio)nicotinamide], the IC50 was 145 nM.

Turning to `Cc1c(C(=O)NC(c2ccccc2)C23CCC(CC2)N3C)cccc1C(F)(F)F` (stereo not drawn) [Example 16, 2-methyl-N-((7-methyl-7-azabicyclo[2.2.1]heptan-1-yl)(phenyl)methyl)-3-(trifluoromethyl)benzamide], the IC50 was determined as 18.6 nM.

Still in this assay, the particulars now being: Table 2, unit from table title.
For `Cc1cccc(Cl)c1C(=O)NC(c1ccccc1)C12CCC(CC1)N2C` (stereo not drawn) [Example 67], the IC50 was found to be 6 nM.

For the compound `Cc1cccc(C)c1C(=O)NC(c1cccc(F)c1)C12CCC(CC1)N2` (stereo not drawn) [Example 35], the IC50 was found to be 18 nM.

In the case of `Cc1cc(C(NC(=O)c2c(C)cccc2C)C23CCC(CC2)N3C)ccn1` (single isomer, unassigned) [Example 85], the IC50 worked out at 23 nM.

Regarding `Cc1cccc(C)c1C(=O)N[C@H](c1ccccc1)C12CCC(CC1)N2Cc1cnn(C)c1` [Example 61], the half-maximal inhibitory concentration (IC50) came out at 12 nM.
